{
  "source": "patent US20050222271A1",
  "about": "“Novel amorphous form of memantine hydrochloride” (priority 2004, published 2005)",
  "assay": "Solubility (complete dissolution) of memantine hydrochloride in solvents",
  "assay_type": "physicochemical",
  "procedure": "In particular, memantine hydrochloride is soluble in water, allowing the complete dissolution of memantine hydrochloride at room temperature at a concentration of 50 mg per milliliter (ml). The use of a relatively concentrated solution, e.g. about 50 mg per ml is therefore preferred.\nIn a first step of the distillation process, memantine hydrochloride is preferably dissolved in an […] solvent; more preferably dissolved in a straight or branched chain C1-C4 alcohol solvent, and most preferably dissolved in methanol or ethanol to form a solution. Memantine hydrochloride is soluble in methanol or ethanol, allowing the complete dissolution of memantine hydrochloride at ambient temperature.\n(§1) In particular, memantine hydrochloride is soluble in methanol, allowing the complete dissolution of memantine hydrochloride in methanol at ambient temperature with a concentration of 30 mg per milliliter (ml). The use of a relatively concentrated solution, e.g. about 30 mg per ml is therefore preferred for methanol.\nas §1, with “ethanol,” for “methanol,”, “ethanol” for “methanol”, “20” for “30”, “ml.” for “milliliter (ml).”, “ethanol.” for “methanol.”",
  "data": [
    {"smiles": "CC12CC3CC(C)(C1)CC(N)(C3)C2.Cl", "note": "[memantine hydrochloride, 1-amino-3,5-dimethyltricyclo[3,3,1,1^3,7]decane hydrochloride]", "values": [
      {"measurement": "solubility in ethanol (complete dissolution with a concentration of)", "setting": "ethanol, ambient temperature", "value": "≥ 20", "unit": "mg per ml"},
      {"measurement": "solubility in methanol (complete dissolution with a concentration of)", "setting": "methanol, ambient temperature", "value": "≥ 30 mg per milliliter (ml)"},
      {"measurement": "solubility in water (complete dissolution at a concentration of)", "setting": "water, room temperature", "value": "≥ 50 mg per milliliter (ml)"}
    ]}
  ]
}
